Drawing on ChEMBL document CHEMBL2074522, “Role of P-glycoprotein-mediated secretion in absorptive drug permeability: An approach using passive membrane permeability and affinity to P-glycoprotein” (J Pharm Sci, 1999), this text covers Ki for one molecule.

The target in this assay is ATP-dependent translocase ABCB1 (Homo sapiens, UniProt P08183). Put plainly: TP_TRANSPORTER: inhibition of Verapamil binding in membranes from Vinblastine-induced Caco-2 cells. The class given is functional, cell membranes, Membrane.
ATP-dependent translocase ABCB1, sequence (P08183 whole entry): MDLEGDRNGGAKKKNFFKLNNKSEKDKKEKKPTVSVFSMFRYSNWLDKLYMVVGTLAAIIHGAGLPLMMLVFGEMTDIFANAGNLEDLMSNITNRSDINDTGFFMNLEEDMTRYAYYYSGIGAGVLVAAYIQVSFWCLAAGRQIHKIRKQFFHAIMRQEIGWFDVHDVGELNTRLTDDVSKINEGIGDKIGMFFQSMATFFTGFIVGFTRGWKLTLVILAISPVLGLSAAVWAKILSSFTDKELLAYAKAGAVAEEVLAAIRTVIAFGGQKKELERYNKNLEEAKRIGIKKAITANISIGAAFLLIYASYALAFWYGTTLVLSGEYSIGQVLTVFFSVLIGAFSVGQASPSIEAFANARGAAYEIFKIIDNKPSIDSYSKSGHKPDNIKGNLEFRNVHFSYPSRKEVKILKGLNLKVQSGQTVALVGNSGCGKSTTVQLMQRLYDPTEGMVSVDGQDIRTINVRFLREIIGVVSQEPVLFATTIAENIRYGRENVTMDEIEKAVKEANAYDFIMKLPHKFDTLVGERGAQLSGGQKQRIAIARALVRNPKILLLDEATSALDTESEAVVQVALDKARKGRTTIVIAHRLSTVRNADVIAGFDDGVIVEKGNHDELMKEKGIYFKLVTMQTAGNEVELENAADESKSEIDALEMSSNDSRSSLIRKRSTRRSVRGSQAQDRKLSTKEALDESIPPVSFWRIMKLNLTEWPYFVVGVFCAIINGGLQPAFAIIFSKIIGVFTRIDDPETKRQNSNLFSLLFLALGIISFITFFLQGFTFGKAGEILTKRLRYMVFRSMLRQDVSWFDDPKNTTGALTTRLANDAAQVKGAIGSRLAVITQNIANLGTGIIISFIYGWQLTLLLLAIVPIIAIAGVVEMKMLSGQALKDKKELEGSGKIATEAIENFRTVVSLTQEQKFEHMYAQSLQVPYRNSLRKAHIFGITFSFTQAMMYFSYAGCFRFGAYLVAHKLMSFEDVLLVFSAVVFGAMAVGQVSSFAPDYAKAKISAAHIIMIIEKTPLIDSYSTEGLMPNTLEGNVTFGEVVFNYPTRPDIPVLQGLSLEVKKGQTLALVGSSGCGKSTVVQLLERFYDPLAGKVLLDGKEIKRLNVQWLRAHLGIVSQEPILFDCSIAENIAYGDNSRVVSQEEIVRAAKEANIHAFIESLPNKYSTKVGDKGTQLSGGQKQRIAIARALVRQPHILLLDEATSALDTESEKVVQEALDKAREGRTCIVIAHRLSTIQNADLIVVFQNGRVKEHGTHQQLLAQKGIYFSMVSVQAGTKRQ

As for `CC(C)NCC(O)COc1ccc(CCNC(=O)NC(C)C)cc1` (configuration not stated) [PAFENOLOL], the Ki by setting is: (read-out: Ki1) 0.0055 mM; (read-out: Ki2) 3.2 mM.
